Where two headings read alike, the source gives them in different places.
Columns and labels:
Format in all cases: cell-based
[1] = test system: human melanoma cells Mewo (with wild-type B-Raf); assay: In vitro cell proliferation assay, Mewo; conditions: 72 hours incubation, cell number by ATP monitoring
Method: (§1) Exponentially growing human melanoma cells A375 (with a mutated B-RAF) and human melanoma cells Mewo (with wild-type B-Raf) were seeded and incubated at 37° C. in a humidified 5% CO2 atmosphere. After 24 hours, scalar doses of the compound were added to the medium and cells incubated for 72 hours. At the end of treatment, cells were washed and counted. Cell number was determined by a cellular adenosine triphosphate monitoring system. Cell proliferation was compared to control cells and the concentration inhibiting cell growth by 50% was calculated.

[2] = test system: human melanoma cells A375 (with a mutated B-RAF); assay: In vitro cell proliferation assay, A375; conditions: A-375
Method: as §1

[3] = test system: p-MAPK (T202/Y204) in A375 human melanoma cells, having a mutated B-RAF; assay: p-MAPK (T202/Y204) ArrayScan assay; conditions: A-375, 1.5 or 2 hours treatment, cytoplasmatic p-MAPK fluorescence, read-out: Array Scan A375 IC50
Method: A375 human melanoma cells, having a mutated B—RAF, were seeded in 384-well poly-lysine coated plates (Matrix) at a density of 1000 cells/well with appropriate medium supplemented with 10% FCS and incubated for 16-24 hours. Cells were treated for 1.5 or 2 hours with increasing doses of compounds (starting dose 10 μM, dilution factor 2.5). At the end of the treatment cells were fixed with p-formaldehyde 3.7% for 15-30 min, then washed twice with D-PBS (80 μl/well) and permeabilized with D-PBS containing 0.1% Triton X-100 and 1% BSA (Sigma-Aldrich) for 15 minutes at room temperature (staining solution). Anti-phospho-MAPK (T202/Y204) monoclonal antibody E10 (Cell Signaling, cat. #9106) diluted 1:100 was added in staining solution and incubated for 1 hour at 37° C. After removal of the primary antibody solution, the anti-mouse Cy™2-conjugated (Green) secondary antibody (Amersham) diluted 1:500 in staining solution containing 2 μg/ml DAPI was added. The plate was incubated for 1 hour at 37° C., washed twice and then red with Cellomics' ArrayScan VTI (4 fields/well, CytoNucTrans algorithm).
The parameter “MEAN_RingAvgIntenCh2,” which measures the mean cytoplasmatic fluorescence intensity associated to p-MAPK staining, is reported as the final result.

[4] = A375 human melanoma cells (mutated B-RAF), 72 hours incubation, cell number by ATP monitoring, read-out: Proliferation A375 IC50

| SMILES | IC50 [1] [nM] | IC50 [2, 4] [nM] | IC50 [3] [nM] | IC50 ([2]; Homo sapiens, value quoted in text for the reference compound, no unit or cell line printed, read-out: antiproliferative activity) [nM] |
| --- | --- | --- | --- | --- |
| O=S(=O)(Nc1cccc(-c2nn(C3CCN(C4CC4)CC3)cc2-c2ccncc2)c1F)c1cc(F)ccc1F [Compound 2, N-{3-[1-(1-Cyclopropyl-piperidin-4-yl)-4-pyridin-4-yl-1H-pyrazol-3-yl]-2-fluoro-phenyl}-2,5-difluoro-benzenesulfonamide] | > 10000 | 12 | < 16 | – |
| CN1CCC(n2cc(-c3ccncc3)c(-c3cccc(NS(=O)(=O)c4cc(F)ccc4F)c3F)n2)CC1 [Compound 5, 2,5-Difluoro-N-{2-fluoro-3-[1-(1-methyl-piperidin-4-yl)-4-pyridin-4-yl-1H-pyrazol-3-yl]-phenyl}-benzenesulfonamide] | > 10000 | 8 | < 16 | – |
| O=S(=O)(Nc1cccc(-c2nn(CCF)cc2-c2ccncc2)c1F)c1cc(F)ccc1F [Compound 7, 2,5-Difluoro-N-{2-fluoro-3-[1-(2-fluoro-ethyl)-4-pyridin-4-yl-1H-pyrazol-3-yl]-phenyl}-benzenesulfonamide] | > 10000 | < 16 | < 16 | – |
| CC(C)n1cc(-c2ccncc2)c(-c2cccc(NS(=O)(=O)c3cc(F)ccc3F)c2F)n1 [Compound 9, 2,5-Difluoro-N-[2-fluoro-3-(1-isopropyl-4-pyridin-4-yl-1H-pyrazol-3-yl)-phenyl]-benzenesulfonamide] | > 10000 | 5 | < 16 | – |
| CC(C)n1cc(-c2ccnc(N)n2)c(-c2cccc(NS(=O)(=O)c3cc(F)ccc3F)c2F)n1 [Compound 10, N-{3-[4-(2-Amino-pyrimidin-4-yl)-1-isopropyl-1H-pyrazol-3-yl]-2-fluoro-phenyl}-2,5-difluoro-benzenesulfonamide] | > 10000 | 3 | < 16 | – |
| Nc1nccc(-c2cn(CCF)nc2-c2cccc(NS(=O)(=O)c3cc(F)ccc3F)c2F)n1 [Compound 11, N-{3-[4-(2-Amino-pyrimidin-4-yl)-1-(2-fluoro-ethyl)-1H-pyrazol-3-yl]-2-fluoro-phenyl}-2,5-difluoro-benzenesulfonamide] | > 10000 | 17 | < 16 | – |
| CC(C)n1cc(-c2ccnc(N)c2)c(-c2cccc(NS(=O)(=O)c3cc(F)ccc3F)c2F)n1 [Compound 12, N-{3-[4-(2-Amino-pyridin-4-yl)-1-isopropyl-1H-pyrazol-3-yl]-2-fluoro-phenyl}-2,5-difluoro-benzenesulfonamide] | > 10000 | 17 | < 16 | – |
| Nc1cc(-c2cn(CCF)nc2-c2cccc(NS(=O)(=O)c3cc(F)ccc3F)c2F)ccn1 [Compound 13, N-{3-[4-(2-Amino-pyridin-4-yl)-1-(2-fluoro-ethyl)-1H-pyrazol-3-yl]-2-fluoro-phenyl}-2,5-difluoro-benzenesulfonamide] | > 10000 | < 16 | < 16 | – |
| Nc1cc(-c2cn(C3CCOCC3)nc2-c2cccc(NS(=O)(=O)c3cc(F)ccc3F)c2F)ccn1 [Compound 14, N-{3-[4-(2-Amino-pyridin-4-yl)-1-(tetrahydro-pyran-4-yl)-1H-pyrazol-3-yl]-2-fluoro-phenyl}-2,5-difluoro-benzenesulfonamide] | > 10000 | 34 | < 16 | – |
| Nc1cc(-c2cn(C3CCCC3)nc2-c2cccc(NS(=O)(=O)c3cc(F)ccc3F)c2F)ccn1 [Compound 17, N-{3-[4-(2-Amino-pyridin-4-yl)-1-cyclopentyl-1H-pyrazol-3-yl]-2-fluoro-phenyl}-2,5-difluoro-benzenesulfonamide] | > 10000 | 28 | < 16 | – |
| O=S(=O)(Nc1cccc(-c2nn(C3CCC(F)(F)CC3)cc2-c2ccncc2)c1F)c1cc(F)ccc1F [Compound 25, N-{3-[1-(4,4-difluorocyclohexyl)-4-(pyridin-4-yl)-1H-pyrazol-3-yl]-2-fluorophenyl}-2,5-difluorobenzenesulfonamide] | > 10000 | < 16 | < 16 | – |
| CC(=O)Nc1cc(-c2cn(C3CCOCC3)nc2-c2cccc(NS(=O)(=O)c3cc(F)ccc3F)c2F)ccn1 [Compound 26, N-{4-[3-(3-{[(2,5-difluorophenyl)sulfonyl]amino}-2-fluorophenyl)-1-(tetrahydro-2H-pyran-4-yl)-1H-pyrazol-4-yl]pyridin-2-yl}acetamide] | > 10000 | 7 | < 16 | – |
| CC(C)C(=O)Nc1cc(-c2cn(C3CCOCC3)nc2-c2cccc(NS(=O)(=O)c3cc(F)ccc3F)c2F)ccn1 [Compound 30, N-{4-[3-(3-{[(2,5-difluorophenyl)sulfonyl]amino}-2-fluorophenyl)-1-(tetrahydro-2H-pyran-4-yl)-1H-pyrazol-4-yl]pyridin-2-yl}-2-methylpropanamide] | > 10000 | < 16 | < 16 | – |
| CC(=O)Nc1cc(-c2cn(C3CCN(C)CC3)nc2-c2cccc(NS(=O)(=O)c3cc(F)ccc3F)c2F)ccn1 [Compound 31, N-{4-[3-(3-{[(2,5-difluorophenyl)sulfonyl]amino}-2-fluorophenyl)-1-(1-methylpiperidin-4-yl)-1H-pyrazol-4-yl]pyridin-2-yl}acetamide] | > 10000 | < 16 | < 16 | – |
| CCn1cc(-c2ccncc2)c(-c2cccc(NS(=O)(=O)c3cc(F)ccc3F)c2F)n1 [Ref. cpd, N-{3-[1-ethyl-4-(pyridin-4-yl)-1H-pyrazol-3-yl]-2-fluorophenyl}-2,5-difluorobenzenesulfonamide, reference compound] | > 10000 | 48 | < 16 | 84 |

From US9114137B2, “Derivatives of pyrazolophenyl-benzenesulfonamide compounds and use thereof as antitumor agents” (Nerviano Medical Sciences S.R.L., priority 2010, dated 2015)
